Laboratory results from US6737383B1, “Herbicidal oxadiazolidines” (priority 1999, dated 2004).

How the values were obtained:
[1] = system: cocklebur; experiment: Test B pre/postemergence cocklebur; assay type: in vivo, Xanthium strumarium
In short: (§1)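 Response is a visual 0-to-10 score relative to untreated plants, where 0 means no effect and 10 means complete control, taken twelve to sixteen days after application. Treatments went onto soil at planting and onto foliage of 1- to 4-leaf plants, using a surfactant-containing non-phytotoxic solvent.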

[2] = system: corn; experiment: Test B pre/postemergence corn; assay type: in vivo, Zea mays
In short: as §1

[3] = system: crabgrass; experiment: Test B pre/postemergence crabgrass; assay type: in vivo, Digitaria sanguinalis
In short: as §1

[4] = system: giant foxtail; experiment: Test B pre/postemergence giant foxtail; assay type: in vivo, Setaria faberii
In short: as §1

[5] = system: morningglory; experiment: Test B pre/postemergence morningglory; assay type: in vivo, Ipomoea hederacea
In short: as §1

[6] = system: pigweed; experiment: Test B pre/postemergence pigweed; assay type: in vivo, Amaranthus retroflexus
In short: as §1

[7] = system: rape; experiment: Test B pre/postemergence rape; assay type: in vivo, Brassica napus
In short: as §1

[8] = system: soybean; experiment: Test B pre/postemergence soybean; assay type: in vivo, Glycine max
In short: as §1

[9] = system: sugar beet; experiment: Test B pre/postemergence sugar beet; assay type: in vivo, Beta vulgaris
In short: as §1

[10] = system: velvetleaf; experiment: Test B pre/postemergence velvetleaf; assay type: in vivo, Abutilon theophrasti
In short: as §1

[11] = system: wheat; experiment: Test B pre/postemergence wheat; assay type: in vivo, Triticum aestivum
In short: as §1

[12] = system: wild oat; experiment: Test B pre/postemergence wild oat; assay type: in vivo, Avena fatua
In short: as §1

[13] = system: purple nutsedge; experiment: Test B pre/postemergence purple nutsedge; assay type: in vivo, Cyperus rotundus
In short: as §1

[14] = system: rice; experiment: Test B flood test rice; assay type: in vivo, Oryza sativa
In short: (§2)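 Plants were grown to the 2-leaf stage before treatment with test chemical, then held in a greenhouse for twelve to sixteen days. Injury was visually rated against untreated controls on a 0–10 scale, where 0 is no effect and 10 is complete control.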

[15] = system: smallflower flatsedge; experiment: Test B flood test smallflower flatsedge; assay type: in vivo, Cyperus difformis
In short: as §2

[16] = system: duck salad; experiment: Test B flood test duck salad; assay type: in vivo, Heteranthera limosa
In short: as §2

[17] = Postemergence, Rate 125 g/ha, scale of 0 to 10 where 0 is no effect and 10 is complete control
[18] = Preemergence, Rate 62 g/ha, scale of 0 to 10 where 0 is no effect and 10 is complete control
[19] = Preemergence, Rate 125 g/ha, 0 is no effect, 10 is complete control
[20] = Preemergence, Rate 250 g/ha, scale 0 to 10, 0 is no effect, 10 is complete control
[21] = Preemergence, Rate 500 g/ha, scale 0 to 10 (0 no effect, 10 complete control)
[22] = Rate 62 g/ha, Postemergence, scale of 0 to 10 where 0 is no effect and 10 is complete control
[23] = Rate 250 g/ha, Postemergence, scale 0 to 10, 0 is no effect, 10 is complete control
[24] = Rate 500 g/ha, Postemergence, scale 0 to 10
[25] = Postemergence (flood test species), Rate 125 g/ha, scale of 0 to 10 where 0 is no effect and 10 is complete control
[26] = Rate 62 g/ha, Postemergence section, flood test species, scale of 0 to 10 where 0 is no effect and 10 is complete control
[27] = Rate 250 g/ha, Postemergence (flood test), scale 0 to 10, 0 is no effect, 10 is complete control
[28] = Rate 500 g/ha, listed under Postemergence (flood test species), scale 0 to 10

How did the “Cocklebur plant response rating” value [1, 17] turn out when CC(C)N(C(=O)n1oc(=O)[nH]c1=O)c1ccc(F)cc1 [Compound 164] was run?
The value was 0.

And the “Cocklebur plant response rating” value [1, 18]?
The value was 0.

What about the “Cocklebur plant response rating (0 to 10 scale)” value [1, 19] of the same compound?
Its value is 0.

What about the “Cocklebur plant response rating” value [1, 20] of the same compound?
The value was 0.

And the “Cocklebur plant response rating” value [1, 21]?
Its value is 0.

And the “Cocklebur plant response rating” value [1, 22]?
The value was 0.

What about the “Plant response rating, Cocklebur” value [1, 23] of the same compound?
Its value is 0.

What about the “Cocklebur plant response rating” value [1, 24] of the same compound?
Its value is 0.

And the “Corn plant response rating” value [2, 17]?
The value was 0.

And the “Corn plant response rating” value [2, 18]?
Its value is 0.

And the “Corn plant response rating (0 to 10 scale)” value [2, 19]?
Its value is 0.

And the “Corn plant response rating” value [2, 20]?
The value was 0.

And the “Corn plant response rating” value [2, 21]?
The value was 0.

What about the “Corn plant response rating” value [2, 22] of the same compound?
The value was 0.

And the “Plant response rating, Corn” value [2, 23]?
Its value is 0.

What about the “Corn plant response rating” value [2, 24] of the same compound?
Its value is 0.

And the “Crabgrass plant response rating” value [3, 17]?
Its value is 0.

What about the “Crabgrass plant response rating” value [3, 18] of the same compound?
The value was 0.

What about the “Crabgrass plant response rating (0 to 10 scale)” value [3, 19] of the same compound?
Its value is 0.

What about the “Crabgrass plant response rating” value [3, 20] of the same compound?
Its value is 0.

What about the “Crabgrass plant response rating” value [3, 21] of the same compound?
Its value is 4.

And the “Crabgrass plant response rating” value [3, 22]?
The value was 0.

And the “Plant response rating, Crabgrass” value [3, 23]?
The value was 2.

What about the “Crabgrass plant response rating” value [3, 24] of the same compound?
Its value is 9.

What about the “Giant foxtail plant response rating” value [4, 17] of the same compound?
The value was 0.

What about the “Giant foxtail plant response rating” value [4, 18] of the same compound?
The value was 0.

And the “Giant foxtail plant response rating (0 to 10 scale)” value [4, 19]?
The value was 0.

And the “Giant foxtail plant response rating” value [4, 20]?
Its value is 0.

What about the “Giant foxtail plant response rating” value [4, 21] of the same compound?
The value was 2.

And the “Giant foxtail plant response rating” value [4, 22]?
The value was 0.

What about the “Plant response rating, Giant foxtail” value [4, 23] of the same compound?
The value was 0.

And the “Giant foxtail plant response rating” value [4, 24]?
Its value is 7.

What about the “Morningglory plant response rating” value [5, 17] of the same compound?
Its value is 0.

And the “Morningglory plant response rating” value [5, 18]?
Its value is 0.

And the “Morningglory plant response rating (0 to 10 scale)” value [5, 19]?
The value was 0.

And the “Morningglory plant response rating” value [5, 20]?
Its value is 0.

What about the “Morningglory plant response rating” value [5, 21] of the same compound?
The value was 0.

What about the “Morningglory plant response rating” value [5, 22] of the same compound?
The value was 0.

And the “Plant response rating, Morningglory” value [5, 23]?
The value was 0.

What about the “Morningglory plant response rating” value [5, 24] of the same compound?
The value was 2.

What about the “Redroot pigweed plant response rating” value [6, 17] of the same compound?
The value was 0.

And the “Redroot pigweed plant response rating” value [6, 18]?
The value was 0.

And the “Redroot pigweed plant response rating (0 to 10 scale)” value [6, 19]?
The value was 0.

And the “Redroot pigweed plant response rating” value [6, 20]?
Its value is 0.

And the “Redroot pigweed plant response rating” value [6, 21]?
Its value is 0.

What about the “Redroot pigweed plant response rating” value [6, 22] of the same compound?
Its value is 0.

And the “Plant response rating, Redroot pigweed” value [6, 23]?
The value was 0.

And the “Redroot pigweed plant response rating” value [6, 24]?
Its value is 0.

And the “Rape plant response rating” value [7, 17]?
Its value is 0.

And the “Rape plant response rating” value [7, 18]?
The value was 0.

And the “Rape plant response rating (0 to 10 scale)” value [7, 19]?
The value was 0.

What about the “Rape plant response rating” value [7, 20] of the same compound?
The value was 0.

And the “Rape plant response rating” value [7, 21]?
Its value is 0.

And the “Rape plant response rating” value [7, 22]?
The value was 0.

What about the “Plant response rating, Rape” value [7, 23] of the same compound?
The value was 0.

What about the “Rape plant response rating” value [7, 24] of the same compound?
The value was 0.

And the “Soybean plant response rating” value [8, 17]?
Its value is 1.

What about the “Soybean plant response rating” value [8, 18] of the same compound?
Its value is 0.

And the “Soybean plant response rating (0 to 10 scale)” value [8, 19]?
Its value is 0.

And the “Soybean plant response rating” value [8, 20]?
The value was 0.

What about the “Soybean plant response rating” value [8, 21] of the same compound?
The value was 0.

And the “Soybean plant response rating” value [8, 22]?
The value was 0.

And the “Plant response rating, Soybean” value [8, 23]?
The value was 2.

What about the “Soybean plant response rating” value [8, 24] of the same compound?
Its value is 2.

And the “Sugarbeets plant response rating” value [9, 17]?
The value was 0.

What about the “Sugarbeets plant response rating” value [9, 18] of the same compound?
The value was 0.

What about the “Sugarbeets plant response rating (0 to 10 scale)” value [9, 19] of the same compound?
Its value is 0.

What about the “Sugarbeets plant response rating” value [9, 20] of the same compound?
Its value is 0.

What about the “Sugarbeets plant response rating” value [9, 21] of the same compound?
The value was 0.

And the “Sugarbeets plant response rating” value [9, 22]?
The value was 0.

And the “Plant response rating, Sugarbeets” value [9, 23]?
Its value is 0.

What about the “Sugarbeets plant response rating” value [9, 24] of the same compound?
The value was 0.

What about the “Velvetleaf plant response rating” value [10, 18] of the same compound?
The value was 0.

What about the “Velvetleaf plant response rating (0 to 10 scale)” value [10, 19] of the same compound?
Its value is 0.

What about the “Velvetleaf plant response rating” value [10, 20] of the same compound?
The value was 0.

What about the “Velvetleaf plant response rating” value [10, 21] of the same compound?
Its value is 0.

What about the “Plant response rating, Velvetleaf” value [10, 23] of the same compound?
The value was 0.

What about the “Velvetleaf plant response rating” value [10, 24] of the same compound?
The value was 0.

And the “Wheat plant response rating” value [11, 18]?
The value was 0.

What about the “Wheat plant response rating (0 to 10 scale)” value [11, 19] of the same compound?
The value was 0.

What about the “Wheat plant response rating” value [11, 20] of the same compound?
Its value is 0.

What about the “Wheat plant response rating” value [11, 21] of the same compound?
The value was 0.

And the “Plant response rating, Wheat” value [11, 23]?
The value was 0.

And the “Wheat plant response rating” value [11, 24]?
The value was 0.

And the “Wild oats plant response rating” value [12, 18]?
Its value is 0.

And the “Wild oats plant response rating (0 to 10 scale)” value [12, 19]?
Its value is 0.

And the “Wild oats plant response rating” value [12, 20]?
The value was 0.

What about the “Wild oats plant response rating” value [12, 21] of the same compound?
Its value is 0.

What about the “Plant response rating, Wild oats” value [12, 23] of the same compound?
The value was 0.

What about the “Wild oats plant response rating” value [12, 24] of the same compound?
The value was 0.

What about the “Nutsedge plant response rating” value [13, 17] of the same compound?
The value was 0.

And the “Nutsedge plant response rating” value [13, 18]?
The value was 0.

What about the “Nutsedge plant response rating (0 to 10 scale)” value [13, 19] of the same compound?
Its value is 0.

And the “Nutsedge plant response rating” value [13, 20]?
Its value is 0.

And the “Nutsedge plant response rating” value [13, 21]?
Its value is 0.

What about the “Nutsedge plant response rating” value [13, 22] of the same compound?
The value was 0.

And the “Plant response rating, Nutsedge” value [13, 23]?
Its value is 0.

And the “Nutsedge plant response rating” value [13, 24]?
The value was 0.

What about the “Rice plant response rating” value [14, 25] of the same compound?
Its value is 0.

And the “Rice plant response rating” value [14, 26]?
Its value is 0.

And the “Plant response rating, Rice” value [14, 27]?
The value was 0.

And the “Rice plant response rating” value [14, 28]?
Its value is 0.

And the “S. Flatsedge plant response rating” value [15, 25]?
Its value is 0.

And the “S. Flatsedge plant response rating” value [15, 26]?
The value was 0.

What about the “Plant response rating, S. Flatsedge” value [15, 27] of the same compound?
The value was 0.

And the “S. Flatsedge plant response rating” value [15, 28]?
Its value is 0.

What about the “Ducksalad plant response rating” value [16, 25] of the same compound?
Its value is 0.

And the “Ducksalad plant response rating” value [16, 26]?
The value was 0.

And the “Plant response rating, Ducksalad” value [16, 27]?
Its value is 0.

And the “Ducksalad plant response rating” value [16, 28]?
The value was 0.
